Assay results as given in ChEMBL document CHEMBL4382259, “Synthesis of novel guttiferone E and xanthochymol derivatives with cytotoxicities by inducing cell apoptosis and arresting the cell cycle phase” (Eur J Med Chem, 2019).
pIC50: −log10 of the molar value. Calls of active or inactive are those of the source. The calls are words filed in the database; no cut-off is given here.

Columns and labels:
HEL [1] = experiment: Induction of apoptosis in HEL cells assessed as viable cells at 5 uM after 48 hrs by Annexin V-FITC/propidium iodide staining based flow cytometry (reference value: 88.3%); assay type: functional; conditions: Homo sapiens, read-out: Activity
HEL [2] = experiment: Induction of apoptosis in HEL cells assessed as necrotic cells at 2.5 uM after 48 hrs by Annexin V-FITC/propidium iodide staining based flow cytometry (reference value: 0.5%); assay type: functional, Homo sapiens
HEL [3] = experiment: Down regulation of Bcl2 expression in HEL cells after 24 hrs by Western blot analysis; assay type: functional, cell-based; conditions: Homo sapiens
HEL [4] = experiment: Up regulation of cleaved caspase3 expression in HEL cells at 2.5 to 10 uM after 24 hrs by Western blot analysis; assay type: functional, cell-based; conditions: Homo sapiens
HEL [5] = experiment: Antiproliferative activity against HEL cells after 72 hrs by MTT assay; assay type: functional, cell-based; conditions: Homo sapiens
K562 = experiment: Antiproliferative activity against human K562 cells after 72 hrs by MTT assay; assay type: functional, cell-based; conditions: K562, 72 h
HeLa = experiment: Antiproliferative activity against human HeLa cells after 72 hrs by MTT assay; assay type: functional, cell-based
MCF7 = experiment: Antiproliferative activity against human MCF7 cells after 72 hrs by MTT assay; assay type: functional, cell-based; conditions: MCF7, 72 h
A549 = experiment: Antiproliferative activity against human A549 cells after 72 hrs by MTT assay; assay type: functional, cell-based; conditions: A549, 72 h
HEL [6] = experiment: Induction of morphological changes in HEL cells assessed as cell shrinkage at 5 uM after 48 hrs by microscopic analysis; assay type: functional, cell-based; conditions: Homo sapiens
HEL [7] = experiment: Induction of morphological changes in HEL cells assessed as cell fragmentation at 5 uM after 48 hrs by microscopic analysis; assay type: functional, cell-based; conditions: Homo sapiens
HEL [8] = experiment: Induction of morphological changes in HEL cells at 2.5 uM after 48 hrs by microscopic analysis; assay type: functional, cell-based; conditions: Homo sapiens
HEL [9] = experiment: Induction of cell death in HEL cells at 10 uM after 48 hrs by microscopic analysis; assay type: functional, cell-based; conditions: Homo sapiens
HEL [10] = experiment: Induction of apoptosis in HEL cells assessed as viable cells at 2.5 uM after 24 hrs by Annexin V-FITC/propidium iodide staining based flow cytometry (reference value: 88.6%); assay type: functional; conditions: Homo sapiens, read-out: Activity
HEL [11] = experiment: Induction of apoptosis in HEL cells assessed as early apoptotic cells at 2.5 uM after 24 hrs by Annexin V-FITC/propidium iodide staining based flow cytometry (reference value: 9.9%); assay type: functional, Homo sapiens
HEL [12] = experiment: Induction of apoptosis in HEL cells assessed as late apoptotic cells at 2.5 uM after 24 hrs by Annexin V-FITC/propidium iodide staining based flow cytometry (reference value: 1.2%); assay type: functional, Homo sapiens
HEL [13] = experiment: Induction of apoptosis in HEL cells assessed as necrotic cells at 2.5 uM after 24 hrs by Annexin V-FITC/propidium iodide staining based flow cytometry (reference value: 0.2%); assay type: functional, Homo sapiens
HEL [14] = experiment: Induction of apoptosis in HEL cells assessed as viable cells at 5 uM after 24 hrs by Annexin V-FITC/propidium iodide staining based flow cytometry (reference value: 88.6%); assay type: functional; conditions: Homo sapiens, read-out: Activity
HEL [15] = experiment: Induction of apoptosis in HEL cells assessed as early apoptotic cells at 5 uM after 24 hrs by Annexin V-FITC/propidium iodide staining based flow cytometry (reference value: 9.9%); assay type: functional, Homo sapiens
HEL [16] = experiment: Induction of apoptosis in HEL cells assessed as late apoptotic cells at 5 uM after 24 hrs by Annexin V-FITC/propidium iodide staining based flow cytometry (reference value: 1.2%); assay type: functional, Homo sapiens
HEL [17] = experiment: Induction of apoptosis in HEL cells assessed as necrotic cells at 5 uM after 24 hrs by Annexin V-FITC/propidium iodide staining based flow cytometry (reference value: 0.2%); assay type: functional, Homo sapiens
HEL [18] = experiment: Induction of apoptosis in HEL cells assessed as viable cells at 10 uM after 24 hrs by Annexin V-FITC/propidium iodide staining based flow cytometry (reference value: 88.6%); assay type: functional; conditions: Homo sapiens, read-out: Activity
HEL [19] = experiment: Induction of apoptosis in HEL cells assessed as early apoptotic cells at 10 uM after 24 hrs by Annexin V-FITC/propidium iodide staining based flow cytometry (reference value: 9.9%); assay type: functional, Homo sapiens
HEL [20] = experiment: Induction of apoptosis in HEL cells assessed as late apoptotic cells at 10 uM after 24 hrs by Annexin V-FITC/propidium iodide staining based flow cytometry (reference value: 1.2%); assay type: functional, Homo sapiens
HEL [21] = experiment: Induction of apoptosis in HEL cells assessed as necrotic cells at 10 uM after 24 hrs by Annexin V-FITC/propidium iodide staining based flow cytometry (reference value: 0.2%); assay type: functional, Homo sapiens
HEL [22] = experiment: Induction of apoptosis in HEL cells assessed as viable cells at 2.5 uM after 48 hrs by Annexin V-FITC/propidium iodide staining based flow cytometry (reference value: 88.3%); assay type: functional; conditions: Homo sapiens, read-out: Activity
HEL [23] = experiment: Induction of apoptosis in HEL cells assessed as early apoptotic cells at 2.5 uM after 48 hrs by Annexin V-FITC/propidium iodide staining based flow cytometry (reference value: 8%); assay type: functional, Homo sapiens
HEL [24] = experiment: Induction of apoptosis in HEL cells assessed as late apoptotic cells at 2.5 uM after 48 hrs by Annexin V-FITC/propidium iodide staining based flow cytometry (reference value: 3.3%); assay type: functional, Homo sapiens
HEL [25] = experiment: Induction of apoptosis in HEL cells assessed as early apoptotic cells at 5 uM after 48 hrs by Annexin V-FITC/propidium iodide staining based flow cytometry (reference value: 8%); assay type: functional, Homo sapiens
HEL [26] = experiment: Induction of apoptosis in HEL cells assessed as late apoptotic cells at 5 uM after 48 hrs by Annexin V-FITC/propidium iodide staining based flow cytometry (reference value: 3.3%); assay type: functional, Homo sapiens
HEL [27] = experiment: Induction of apoptosis in HEL cells assessed as necrotic cells at 5 uM after 48 hrs by Annexin V-FITC/propidium iodide staining based flow cytometry (reference value: 0.5%); assay type: functional, Homo sapiens
HEL [28] = experiment: Induction of apoptosis in HEL cells assessed as viable cells at 10 uM after 48 hrs by Annexin V-FITC/propidium iodide staining based flow cytometry (reference value: 88.3%); assay type: functional; conditions: Homo sapiens, read-out: Activity
HEL [29] = experiment: Induction of apoptosis in HEL cells assessed as early apoptotic cells at 10 uM after 48 hrs by Annexin V-FITC/propidium iodide staining based flow cytometry (reference value: 8%); assay type: functional, Homo sapiens
HEL [30] = experiment: Induction of apoptosis in HEL cells assessed as late apoptotic cells at 10 uM after 48 hrs by Annexin V-FITC/propidium iodide staining based flow cytometry (reference value: 3.3%); assay type: functional, Homo sapiens
HEL [31] = experiment: Induction of apoptosis in HEL cells assessed as necrotic cells at 10 uM after 48 hrs by Annexin V-FITC/propidium iodide staining based flow cytometry (reference value: 0.5%); assay type: functional, Homo sapiens
HEL [32] = experiment: Cell cycle arrest in HEL cells assessed as accumulation at G0/G1 phase at 5 uM after 48 hrs propidium iodide staining based flow cytometry (reference value: 37.72%); assay type: functional, Homo sapiens
HEL [33] = experiment: Cell cycle arrest in HEL cells assessed as accumulation at S phase at 5 uM after 48 hrs propidium iodide staining based flow cytometry (reference value: 45.65%); assay type: functional, Homo sapiens
HEL [34] = experiment: Cell cycle arrest in HEL cells assessed as accumulation at G2/M phase at 5 uM after 48 hrs propidium iodide staining based flow cytometry (reference value: 14.33%); assay type: functional, Homo sapiens
HEL [35] = experiment: Up regulation of Bax expression in HEL cells after 24 hrs by Western blot analysis; assay type: functional, cell-based; conditions: Homo sapiens
HEL [36] = experiment: Down regulation of full-length PARP1 expression in HEL cells at 2.5 to 10 uM after 24 hrs by Western blot analysis; assay type: functional, cell-based; conditions: Homo sapiens
HEL [37] = experiment: Down regulation of cyclin D1 expression in HEL cells at 2.5 to 10 uM after 24 hrs by Western blot analysis; assay type: functional, cell-based; conditions: Homo sapiens

`CC(C)=CC[C@H]1C[C@]23C[C@@H](CC=C(C)C)C(C)(C)[C@H]4CCC(C)(C)O[C@]42OC(=O)C(C(=O)c2ccc(O)c(O)c2)=C3OC1(C)C` was tested, and the viability at 5 µM (HEL [1]) was 72.6%, the Activity (HEL [2]) was 1.6% and the Activity (HEL [3]) was “Dose-dependent effect”. The Activity (HEL [4]) was “Active”, the pIC50 (HEL [5]) was 5.32 and the pIC50 (K562) was 5.11. The pIC50 (HeLa) was under 4.70, the pIC50 (MCF7) was 4.87 and the pIC50 (A549) was under 4.70. For the same molecule, the Activity (HEL [6]) was “Active”, the Activity (HEL [7]) was “Active” and the Activity (HEL [8]) was “Active”. For the same molecule, the Activity (HEL [9]) was “Active”, the viability at 2.5 µM (HEL [10]) was 86.6% and the Activity (HEL [11]) was 10.6%. It also gave an Activity (HEL [12]) of 2.3%, an Activity (HEL [13]) of 0.4% and a viability at 5 µM (HEL [14]) of 80.9%. It also gave an Activity (HEL [15]) of 15.3%, an Activity (HEL [16]) of 3.3% and an Activity (HEL [17]) of 0.4%. It also gave a viability at 10 µM (HEL [18]) of 61.6%, an Activity (HEL [19]) of 34.6% and an Activity (HEL [20]) of 3%. It also gave an Activity (HEL [21]) of 0.8%, a viability at 2.5 µM (HEL [22]) of 84.8% and an Activity (HEL [23]) of 7.2%. The Activity (HEL [24]) was 6.4%, the Activity (HEL [25]) was 21% and the Activity (HEL [26]) was 5.8%. For the same molecule, the Activity (HEL [27]) was 0.6%, the viability at 10 µM (HEL [28]) was 49.2% and the Activity (HEL [29]) was 32.5%. For the same molecule, the Activity (HEL [30]) was 15.9%, the Activity (HEL [31]) was 2.4% and the Activity (HEL [32]) was 59.29%. For the same molecule, the Activity (HEL [33]) was 28.81%, the Activity (HEL [34]) was 10.76% and the Activity (HEL [35]) was “Dose-dependent effect”. For the same molecule, the Activity (HEL [36]) was “Active” and the Activity (HEL [37]) was “Active”.
